# Laboratory results: PubChem BioAssay (NCI)
#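 Where inhibition never reached the appropriate level, the endpoint shown equals the highest concentration tested. Otherwise, values were interpolated linearly from a five-concentration, 48-hour dose response in 96-well plates. Here, GI50 denotes the concentration required for 50% inhibition of growth. TGI: total growth inhibition.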
# What was measured:
# Test in all cases: growth of human tumour cells (NCI), 48 h
# [1] = tested on: 786-0 renal
# [2] = tested on: A498 renal
# [3] = tested on: A549 NSCLC
# [4] = tested on: ACHN renal
# [5] = tested on: BT-549 breast
# [6] = tested on: CAKI-1 renal
# [7] = tested on: CCRF-CEM leukemia
# [8] = tested on: COLO 205 colon
# [9] = tested on: DU-145 prostate
# [10] = tested on: EKVX NSCLC
# [11] = tested on: HCC-2998 colon
# [12] = tested on: HCT-116 colon
# [13] = tested on: HCT-15 colon
# [14] = tested on: HL-60(TB) leukemia
# [15] = tested on: HOP-62 NSCLC
# [16] = tested on: HOP-92 NSCLC
# [17] = tested on: HS 578T breast
# [18] = tested on: HT29 colon
# [19] = tested on: IGROV1 ovarian
# [20] = tested on: K-562 leukemia
# [21] = tested on: KM12 colon
# [22] = tested on: LOX IMVI melanoma
# [23] = tested on: M14 melanoma
# [24] = tested on: MALME-3M melanoma
# [25] = tested on: MCF7 breast
# [26] = tested on: MDA-MB-231 breast
# [27] = tested on: MDA-MB-435
# [28] = tested on: MOLT-4 leukemia
# [29] = tested on: NCI-H226 lung
# [30] = tested on: NCI-H23 lung
# [31] = tested on: NCI-H460 lung
# [32] = tested on: NCI-H522 lung
# [33] = tested on: NCI/ADR-RES ovarian
# [34] = tested on: OVCAR-3 ovarian
# [35] = tested on: OVCAR-4 ovarian
# [36] = tested on: OVCAR-5 ovarian
# [37] = tested on: OVCAR-8 ovarian
# [38] = tested on: PC-3 prostate
# [39] = tested on: RPMI-8226 leukemia
# [40] = tested on: RXF 393 renal
# [41] = tested on: SF-268 CNS
# [42] = tested on: SF-295 CNS
# [43] = tested on: SF-539 CNS
# [44] = tested on: SK-MEL-2 melanoma
# [45] = tested on: SK-MEL-28 melanoma
# [46] = tested on: SK-MEL-5 melanoma
# [47] = tested on: SK-OV-3 ovarian
# [48] = tested on: SN12C renal
# [49] = tested on: SNB-19 CNS
# [50] = tested on: SNB-75 CNS
# [51] = tested on: SR leukemia
# [52] = tested on: SW-620 colon
# [53] = tested on: T-47D breast
# [54] = tested on: TK-10 renal
# [55] = tested on: U251 CNS
# [56] = tested on: UACC-257 melanoma
# [57] = tested on: UACC-62 melanoma
# [58] = tested on: UO-31 renal
structure (smiles),measurement,setting,value
O=C(Nc1ccccc1/C=C/c1n[nH]c2ccccc12)c1ccccc1,GI50,[1],12.6 µM
same,TGI,[1],26.7 µM
same,GI50,[2],1.42 µM
same,TGI,[2],3.21 µM
same,GI50,[3],2.47 µM
same,TGI,[3],13.6 µM
same,GI50,[4],7.71 µM
same,TGI,[4],20.1 µM
same,GI50,[5],3.97 µM
same,TGI,[5],16.1 µM
same,GI50,[6],2.98 µM
same,TGI,[6],16.9 µM
same,GI50,[7],4.05 µM
same,TGI,[7],22.3 µM
same,GI50,[8],1.71 µM
same,TGI,[8],3.6 µM
same,GI50,[9],2.6 µM
same,TGI,[9],8.23 µM
same,GI50,[10],1.34 µM
same,TGI,[10],8.91 µM
same,GI50,[11],1.62 µM
same,TGI,[11],4.23 µM
same,GI50,[12],2.28 µM
same,TGI,[12],10.5 µM
same,GI50,[13],2.37 µM
same,TGI,[13],8.53 µM
same,GI50,[14],0.589 µM
same,TGI,[14],16.2 µM
same,GI50,[15],2.15 µM
same,TGI,[15],6.13 µM
same,GI50,[16],0.218 µM
same,TGI,[16],5.25 µM
same,GI50,[17],3.64 µM
same,TGI,[17],17.7 µM
same,GI50,[18],1.78 µM
same,TGI,[18],7 µM
same,GI50,[19],6.47 µM
same,TGI,[19],22.4 µM
same,GI50,[20],3.47 µM
same,TGI,[20],12.6 µM
same,GI50,[21],0.0648 µM
same,TGI,[21],1.65 µM
same,GI50,[22],2.48 µM
same,TGI,[22],11.4 µM
same,GI50,[23],3.32 µM
same,TGI,[23],15 µM
same,GI50,[24],4.05 µM
same,TGI,[24],12 µM
same,GI50,[25],0.505 µM
same,TGI,[25],13.2 µM
same,GI50,[26],3.45 µM
same,TGI,[26],15.7 µM
same,GI50,[27],1.97 µM
same,TGI,[27],13.5 µM
same,GI50,[28],7.27 µM
same,TGI,[28],38.2 µM
same,GI50,[29],1.09 µM
same,TGI,[29],11.5 µM
same,GI50,[30],2.2 µM
same,TGI,[30],17.6 µM
same,GI50,[31],2.15 µM
same,TGI,[31],11.2 µM
same,GI50,[32],9.28 µM
same,TGI,[32],24 µM
same,GI50,[33],4.69 µM
same,TGI,[33],20 µM
same,GI50,[34],5.26 µM
same,TGI,[34],16.5 µM
same,GI50,[35],9.46 µM
same,TGI,[35],24.7 µM
same,GI50,[36],1.92 µM
same,TGI,[36],12.9 µM
same,GI50,[37],3.95 µM
same,TGI,[37],14.6 µM
same,GI50,[38],2.15 µM
same,TGI,[38],7.58 µM
same,GI50,[39],3.07 µM
same,TGI,[39],12.8 µM
same,GI50,[40],4.58 µM
same,TGI,[40],17.3 µM
same,GI50,[41],3.75 µM
same,TGI,[41],17.3 µM
same,GI50,[42],2.13 µM
same,TGI,[42],5.57 µM
same,GI50,[43],4.26 µM
same,TGI,[43],14.1 µM
same,GI50,[44],5.03 µM
same,TGI,[44],16.5 µM
same,GI50,[45],4.31 µM
same,TGI,[45],17.7 µM
same,GI50,[46],3.81 µM
same,TGI,[46],16.5 µM
same,GI50,[47],10.9 µM
same,TGI,[47],22.8 µM
same,GI50,[48],2 µM
same,TGI,[48],5.4 µM
same,GI50,[49],5.93 µM
same,TGI,[49],22.5 µM
same,GI50,[50],9.04 µM
same,TGI,[50],23.9 µM
same,GI50,[51],2.87 µM
same,TGI,[51],13.7 µM
same,GI50,[52],1.71 µM
same,TGI,[52],11.5 µM
same,GI50,[53],3.77 µM
same,TGI,[53],15.8 µM
same,GI50,[54],4.85 µM
same,TGI,[54],16 µM
same,GI50,[55],1.72 µM
same,TGI,[55],3.75 µM
same,GI50,[56],2.36 µM
same,TGI,[56],16.5 µM
same,GI50,[57],2.88 µM
same,TGI,[57],13 µM
same,GI50,[58],4.14 µM
same,TGI,[58],19.3 µM
